Values of other authors in patent US20090246276A1, “Pharmaceutical Compositions” (priority 2008, published 2009).
Like-named read-outs stand apart in the source and are kept apart here.

System: patients diagnosed with MDD
Conditions: citalopram non-responders, cited from earlier work

For `CC(NC(C)(C)C)C(=O)c1cccc(Cl)c1` (centres unmarked) [Bupropion, bupropion], the remission rate (bupropion added on to the existing citalopram treatment) is given as 30% and the remission rate (switched to bupropion) is given as 20%.
